Patent US20100273752A1, “MEQUITAZINE FOR TREATING OR PREVENTING PATHOLOGIES INVOLVING HISTAMINE H4 RECEPTORS” (PIERRE FABRE MEDICAMENT, priority 2007, published 2010)

Key:
[1] = test system: plantar edema induced by histamine; experiment: Plantar edema induced by histamine in the mouse, oral administration; format: in vivo; conditions: for Inhibition of inflammation (%): 3 mg/kg oral
Procedure: The goal of this experiment was to detect possible anti-inflammatory activity of […], […] and […] with respect to plantar edema induced by histamine in the mouse. The principle of the test is inspired by the publication of Kreutner et al. (2000). All groups were composed of 10 animals. The products were administered by oral route (25 ml/kg) in pretreatment, at various times: 120, 90, 60 and 30 minutes before the inflammation-producing agent. Sixty minutes later, an injection (10 μl) in the paw was given under isoflurane anesthesia. The right paw received 13 μg of histamine dihydrochloride and the left paw physiological saline solution (histamine vehicle). Thirty minutes after the injections, the animals were euthanized by cervical dislocation. The paws were sampled and weighed. The edemas were quantified by the difference between the weights of the paws (weight of right paw-weight of left paw).

[2] = test system: histamine-induced bronchoconstriction; experiment: Histamine-induced bronchoconstriction, Konzett model, intravenous administration; format: in vivo, guinea pig
Procedure: The goal of these experiments is to evaluate the activity of the three compounds […] and […] with respect to histamine-induced bronchoconstriction in the Konzett (1940) guinea pig model. Previously we saw that the three compounds exerted antihistamine activity with respect to H4 receptor in vitro, while on the other hand in vivo only […] and […] appeared anti-inflammatory when the inflammation is generated by histamine. It seems that […] loses its activity when it is administered by oral route. With an aim of analyzing the activity by intravenous route of the three products, the following test was conducted. The animals are ventilated, by means of a constant pressure respiratory pump, by a volume of air in excess. […] The variations observed represent changes in bronchial tonus. Histamine-induced bronchoconstriction causes an increase in the excess volume measured by the sensor. The various compounds are administered by way of the jugular vein, which is catheterized beforehand. Histamine stimulation is then carried out by intravenous route at a dose of 7 μg/kg.

[3] = test system: bronchoconstriction induced by acetylcholine; experiment: Inhibition of acetylcholine-induced bronchoconstriction in anaesthetized ventilated guinea pigs; format: in vivo, guinea pig
Procedure: Guinea pigs are anaesthetized and artificially ventilated. The air penetrating the lungs is measured by means of a sensor. Each inspiration is thus quantified. Bronchoconstriction is then induced by intravenous injection of acetylcholine. The effect of acetylcholine is a direct and immediate modification of bronchial tonus. The bronchoconstriction effects of acetylcholine are evaluated in mm at the peak of the effects.

respiratory functions = experiment: Effects on respiratory functions after oral administration in male Wistar rats; format: in vivo, rat
Procedure: The effects of […] (0.5, 50 and 100 mg/kg) on respiratory functions are analyzed after oral (per os) administration in male Wistar rats (8 rats/dose). […] (100 mg/kg) administered under the same conditions is used as a reference substance. Theophylline (100 mg/kg), administered under the same experimental conditions, is used as a reference substance. Carboxymethyl cellulose (0.5%) in distilled water is used as a control vehicle. At the end of the testing period (i.e., 360 minutes after administration of the dose), the behavior of the animals as well as the diameter of their pupils (miosis/mydriasis) are evaluated. Blood samples are taken from each rat (except those pertaining to the theophylline group) in order to analyze the concentration of the substance in the blood. […]

H4 receptor = H4 receptor (Homo sapiens, UniProt Q9H3N8); experiment: G protein activation test ([35S] GTP binding); conditions: for Effect on G protein activation induced by histamine: 0.1 μM histamine, FIG. 1a; for Functional character at H4 receptor (basal activity in the absence of agonist): FIG. 1b
histamine H4 receptor [4] = biological target: T1, histamine H4 receptor (Homo sapiens, UniProt Q9H3N8); experiment: Affinity constants by competition with tritiated histamine on membrane preparations from CHO cells expressing H4 receptor; format: binding; set-up: expressed in transfected cells; host or cells: CHO; conditions: CHO cell membranes
Source text: In a second series of experiments, the affinity constants of these three compounds are precisely determined by competition with the tritiated histamine radioligand on membrane preparations from CHO cells expressing in a stable manner histamine H4 receptor.

histamine H4 receptor [5] = biological target: T1, histamine H4 receptor; experiment: Receptor binding in vitro, HEK-293 cells stably transfected with human H4 receptor, 10 nM tritiated histamine; set-up: expressed in transfected cells; host or cells: HEK-293; conditions: for inhibition at 10 µM: compounds tested at 10 μM, 10 nM tritiated histamine, HEK-293 cells
Procedure: The goal of this study is to determine an affinity constant of the compound with respect to human histamine H4 receptor in vitro. The model chosen is HEK-293 cells transfected in a stable fashion by cDNA coding for human H4 receptor (Liu et al., 2001). First is determined the affinity of cells expressing each type of receptor for a ligand for which it was also established that it bound 100% to the receptor. The optimal ligand for the recombinant receptor is 10 nM tritiated histamine. Receptor binding is defined as follows: the difference between total binding and the nonspecific binding determined in the presence of excess cold ligand. The results are expressed as a percentage of optimal binding obtained with the ligand model (100%).

T1 sequence (Q9H3N8 whole entry): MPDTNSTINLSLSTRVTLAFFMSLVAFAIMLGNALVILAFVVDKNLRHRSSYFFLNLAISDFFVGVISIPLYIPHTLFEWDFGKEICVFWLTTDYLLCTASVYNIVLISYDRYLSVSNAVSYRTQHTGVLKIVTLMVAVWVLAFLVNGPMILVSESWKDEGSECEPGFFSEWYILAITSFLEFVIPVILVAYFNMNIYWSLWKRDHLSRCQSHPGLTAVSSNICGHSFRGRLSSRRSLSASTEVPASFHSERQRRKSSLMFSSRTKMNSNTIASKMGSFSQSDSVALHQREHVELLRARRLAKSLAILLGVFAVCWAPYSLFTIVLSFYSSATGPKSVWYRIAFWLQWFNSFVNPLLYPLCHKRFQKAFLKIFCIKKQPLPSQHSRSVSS
Sequence of H4 receptor (Q9H3N8 whole entry): as above

Compound | Inhibition of inflammation (%) ([1]; pretreatment −30 min) | Inhibition of inflammation (%) ([1]; pretreatment −60 min) | Inhibition of inflammation (%) ([1]; pretreatment −90 min) | Inhibition of inflammation (%) ([1]; pretreatment −120 min) | Inhibition at 5 min (%) ([2]; 25 mg/kg i.v.) | Inhibition at 30 min (%) ([2]; 25 mg/kg i.v.) | Inhibition at 5 min (%) ([2]; 37.5 mg/kg i.v.) | Inhibition at 30 min (%) ([2]; 37.5 mg/kg i.v.) | Inhibition at 5 min (%) ([2]; 50 mg/kg i.v.) | Inhibition at 30 min (%) ([2]; 50 mg/kg i.v.) | Percentage of inhibition (%) ([3]; dose 25 μg/kg) | Percentage of inhibition (%) ([3]; dose 50 μg/kg) | Percentage of inhibition (%) ([3]; dose 100 μg/kg) | Effect on G protein activation induced by histamine (H4 receptor) | Functional character at H4 receptor (basal activity in the absence of agonist) (H4 receptor) | Ki (histamine H4 receptor [4]) [nM] | Binding to human histamine H4 receptors (in words) (histamine H4 receptor [5]) | inhibition at 10 µM (histamine H4 receptor [5]) [%] | also measured
c1ccc2c(c1)Sc1ccccc1N2C[C@@H]1CN2CCC1CC2 [V0114, 10-[(3S)-1-azabicyclo[2.2.2]oct-3-ylmethyl]-10H-phenothiazine] | −63% | −58% | −72 | −71% | −29 ± 3% | −71 + 5% | −51 ± 8% | −91 + 2% | −48 ± 6% | −97 + 2% | −7 ± 3 | −6 ± 1 | −14 ± 4 | antagonize the activating action | inverse agonists | 2490 ± 370 | strongly bind | 33 | Anti-inflammatory activity, range over pretreatment times ([1]; oral, 120, 90, 60 and 30 minutes beforehand): −58% to −72%; Inhibition at 5 min (%) ([2]; 12.5 mg/kg i.v.): −15 ± 3%; Inhibition at 30 min (%) ([2]; 12.5 mg/kg i.v.): −35 + 6%; Effect on the nine respiratory parameters evaluated (respiratory functions; 0.5, 50 and 100 mg/kg p.o., 360 minute test period): does not have a significant effect; Pupil diameter (respiratory functions; male, Wistar, rat, in vivo, 360 min): an increase of 50 mg/kg related to the administration was noted
CN1[C@@H]2CC[C@H]1C[C@@H](OC(=O)C(CO)c1ccccc1)C2 (stereo partly shown) [Atropine, reference compound] |  |  |  |  |  |  |  |  |  |  |  |  |  |  |  |  |  |  | Percentage of inhibition (%) ([3]; dose 5 μg/kg): −76 ± 8%
Cn1c(=O)c2[nH]cnc2n(C)c1=O [Theophylline, reference compound] |  |  |  |  |  |  |  |  |  |  |  |  |  |  |  |  |  |  | Change in peak flow of expiration (respiratory functions; 100 mg/kg p.o., at 60 minutes): +121%; Change in peak flow of inspiration (respiratory functions; 100 mg/kg p.o., at 60 minutes): +116%; Change in relaxation time (respiratory functions; 100 mg/kg p.o., at 60 minutes): −61%; Change in respiratory rate (respiratory functions; 100 mg/kg p.o., at 60 minutes): +223%; Change in time of expiration (respiratory functions; 100 mg/kg p.o., at 60 minutes): −63%; Change in time of inspiration (respiratory functions; 100 mg/kg p.o., at 60 minutes): −60%; Change in respiratory volume (respiratory functions; 100 mg/kg p.o., at 120 minutes): −17%; Change in 'improves respiratory pause' parameter (respiratory functions; 100 mg/kg p.o., at 300 minutes): −37%; Change in respiratory pause (respiratory functions; 100 mg/kg p.o., at 300 minutes): −20%; Behavior and signs of morbid state (respiratory functions; 360 minutes post-administration, V0114 0.5, 50 and 100 mg/kg, L0013 and theophylline 100 mg/kg): no change of behavior or signs of morbid state
S=C(NC1CCCCC1)N1CCC(c2cnc[nH]2)CC1 [thioperamide, reference compound] |  |  |  |  |  |  |  |  |  |  |  |  |  | antagonize the activating action | inverse agonists |  |  |  | 
c1ccc2c(c1)Sc1ccccc1N2C[C@H]1CN2CCC1CC2 [V0162, 10-[(3R)-1-azabicyclo[2.2.2]oct-3-ylmethyl]-10H-phenothiazine] | +2% | +25% | −5 | +12% | −17 + 3% | −9 ± 8% | −23 + 4% | −9 ± 9% | −31 + 12% | −4 ± 10% | −9 ± 3 | −29 ± 4 | −37 ± 5 | antagonize the activating action | inverse agonists | 1180 ± 160 | strongly bind | 52 | Effect on histamine edema (in words) ([1]; oral route): does not reduce this edema
